From ChEMBL document CHEMBL1759936, “Oxindole derivatives as inhibitors of TAK1 kinase” (Bioorg Med Chem Lett, 2011)
Converted amounts (≈) assume the structure as drawn.

molecular target: TAK1/TAB1 (Homo sapiens, UniProt O43318); experiment: Competitive inhibition of recombinant TAK1-TAB1 assessed as [33P]gamma-ATP incorporation into substrate histone H1 peptide by filter plate assay; assay type: protein-complex assay
Sequence (Q15750 whole entry, one chain of several): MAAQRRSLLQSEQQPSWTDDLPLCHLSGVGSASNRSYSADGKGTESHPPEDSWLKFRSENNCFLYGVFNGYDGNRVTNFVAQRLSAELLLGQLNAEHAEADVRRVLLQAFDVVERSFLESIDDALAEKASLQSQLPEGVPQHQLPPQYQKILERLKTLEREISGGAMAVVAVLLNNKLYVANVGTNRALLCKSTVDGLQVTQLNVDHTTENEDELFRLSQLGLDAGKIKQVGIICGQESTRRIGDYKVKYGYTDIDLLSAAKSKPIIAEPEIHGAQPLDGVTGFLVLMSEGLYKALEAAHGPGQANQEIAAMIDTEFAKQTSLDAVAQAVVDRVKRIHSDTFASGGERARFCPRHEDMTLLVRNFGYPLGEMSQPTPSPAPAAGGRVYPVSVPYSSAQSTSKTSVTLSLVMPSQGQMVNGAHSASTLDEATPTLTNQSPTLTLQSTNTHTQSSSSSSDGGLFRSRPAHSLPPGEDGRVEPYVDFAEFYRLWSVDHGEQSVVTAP

Q: For `O=C1Nc2ccccc2/C1=N/N=C1\SCC(=O)N1c1cccc(O)c1`, which IC50 is on record?
A: 29 µM

Q: Which IC50 does the source give for `CN(C)c1ccc(N2C(=O)CS/C2=N\N=C2/C(=O)Nc3ccccc32)cc1` here?
A: > 50 µM

Q: Which IC50 does the source give for `O=C1CS/C(=N\N=C2/C(=O)Nc3ccccc32)N1` here?
A: > 5 µM

Q: Which IC50 does the source give for `O=C1Nc2ccccc2/C1=N/N=C1\SCC(=O)N1c1ccc(O)cc1` here?
A: 0.046 µM

Q: With `O=C1Nc2ccccc2/C1=C\c1ccc(O)c(O)c1O` as the molecule, how does the IC50 read?
A: 1.7 µM

Q: For `O=C1Nc2ccc(Br)cc2/C1=N/N=C1\SCC(=O)N1c1ccc(O)cc1`, which IC50 is on record?
A: 0.0089 µM

Q: For `O=C1Nc2ccccc2/C1=C/C(=O)c1ccccc1`, which IC50 is on record?
A: > 5 µM

Q: With `O=C1Nc2ccccc2/C1=C/C(=O)c1ccc(O)c(O)c1` as the molecule, how does the IC50 read?
A: 0.56 µM

Q: For `O=C1Nc2ccc(OC(F)(F)F)cc2/C1=N/N=C1\SCC(=O)N1c1ccc(O)cc1`, which IC50 is on record?
A: 3 µM

Q: With `COc1ccc(N2C(=O)CS/C2=N\N=C2/C(=O)Nc3ccccc32)cc1` as the molecule, how does the IC50 read?
A: > 5 µM

Q: Which IC50 does the source give for `O=C1Nc2ccccc2/C1=C/C(=O)c1cccc(O)c1` here?
A: 4.1 µM

Q: For `O=C1Nc2ccccc2/C1=N/N=C1\SCC(=O)N1c1cnccc1O`, which IC50 is on record?
A: 25 µM

Q: With `O=C1Nc2ccccc2/C1=N/N=C1\SCC(=O)N1CC1CCCN1` (configuration not stated) as the molecule, how does the IC50 read?
A: 30 µM

Q: Which IC50 does the source give for `O=C1Nc2ccc(F)cc2/C1=N/N=C1\SCC(=O)N1c1ccc(O)cc1` here?
A: 0.099 µM

Q: Which IC50 does the source give for `Cc1ccc2c(c1)/C(=N/N=C1\SCC(=O)N1c1ccc(O)cc1)C(=O)N2` here?
A: 0.098 µM

Q: With `O=C1Nc2ccc(Cl)cc2/C1=N/N=C1\SCC(=O)N1c1ccc(O)cc1` as the molecule, how does the IC50 read?
A: 0.021 µM

Q: For `CC(C)C1S/C(=N\N=C2/C(=O)Nc3ccc(Cl)cc32)N(c2ccc(O)cc2)C1=O` (configuration not stated), which IC50 is on record?
A: > 5 µM

Q: With `O=C1Nc2ccccc2/C1=N/N=C1\SCC(=O)N1Cc1ccncc1` as the molecule, how does the IC50 read?
A: 8.2 µM

Q: For `O=C1Nc2ccccc2/C1=C\c1ccc(O)c(O)c1`, which IC50 is on record?
A: > 5 µM

Q: Which IC50 does the source give for `CC1S/C(=N\N=C2/C(=O)Nc3ccc(Cl)cc32)N(c2ccc(O)cc2)C1=O` (configuration not stated) here?
A: 0.63 µM

Q: With `O=C1Nc2ccccc2/C1=N/N=C1\SCC(=O)N1c1ccccc1O` as the molecule, how does the IC50 read?
A: 5.8 µM

Q: For `CCC1S/C(=N\N=C2/C(=O)Nc3ccc(Cl)cc32)N(c2ccc(O)cc2)C1=O` (configuration not stated), which IC50 is on record?
A: > 5 µM

molecular target: TAK1/TAB1 (Homo sapiens) (UniProt Q15750+O43318); experiment: Competitive inhibition of recombinant TAK1-TAB1 assessed as [33P]gamma-ATP incorporation into substrate histone H1 peptide at 10 uM by filter plate assay; assay type: protein-complex assay

Q: For `Cc1c(Cl)ccc2c1NC(=O)/C2=N\N=C1/SCC(=O)N1c1ccc(O)cc1`, which inhibition is on record?
A: 0%

Q: With `O=C1Nc2ccccc2C1c1ccnc(Nc2ccccc2O)n1` (configuration not stated) as the molecule, how does the inhibition read?
A: 52%

Q: For `O=C1Nc2cccc(Cl)c2/C1=N/N=C1\SCC(=O)N1c1ccc(O)cc1`, which inhibition is on record?
A: 4%

Q: Which inhibition does the source give for `O=C1Nc2ccccc2/C1=N/N=C1\SCC(=O)N1c1cccc(Oc2ccccc2)c1` here?
A: 0%

Q: Which inhibition does the source give for `O=C1Nc2ccccc2/C1=N/N=C1\N=NCN1c1ccc(O)cc1` here?
A: 0%

Q: For `O=C1Nc2ccccc2/C1=C\c1c[nH]cn1`, which inhibition is on record?
A: 32%

Q: With `C/C(C(=O)c1ccccc1)=C1/C(=O)Nc2ccccc21` as the molecule, how does the inhibition read?
A: 39%

Q: With `O=C1Nc2ccccc2/C1=N/N=C1\SCC(=O)N1c1ccc(OCc2ccccc2)cc1` as the molecule, how does the inhibition read?
A: 6%

Q: With `Cc1ccc(N2C(=O)CS/C2=N\N=C2/C(=O)Nc3ccccc32)cc1` as the molecule, how does the inhibition read?
A: 0%

Q: For `O=C1Nc2ccccc2C1c1ccnc(Nc2ccc(O)cc2)n1` (configuration not stated), which inhibition is on record?
A: 39%

Q: With `O=C1Nc2ccccc2/C1=C/C(=O)c1ccc(O)cc1O` as the molecule, how does the inhibition read?
A: 21%

tested on: not listed separately; experiment: Solubility in phosphate buffer at pH 7.4; assay type: physicochemical

Q: With `O=C1Nc2ccccc2/C1=N/N=C1\SCC(=O)N1c1ccc(O)cc1` as the molecule, how does the solubility read?
A: 65 µM (≈ 22.9 µg/mL)

Q: For `O=C1Nc2ccc(Br)cc2/C1=N/N=C1\SCC(=O)N1c1ccc(O)cc1`, which solubility is on record?
A: 3.1 µM (≈ 1.34 µg/mL)

tested on: HeLa; experiment: Cytotoxicity against human HeLa cells; assay type: cell-based

Q: With `O=C1Nc2ccccc2/C1=N/N=C1\SCC(=O)N1c1ccc(O)cc1` as the molecule, how does the IC50 read?
A: > 100 µM

molecular target: T1, Mitogen-activated protein kinase kinase kinase 7 (Homo sapiens) (UniProt O43318); experiment: Competitive inhibition of TAK1 overexpressed in Hela cells assessed as TAK1 autophosphorylation on Thr187 by ELISA
T1 sequence (whole entry): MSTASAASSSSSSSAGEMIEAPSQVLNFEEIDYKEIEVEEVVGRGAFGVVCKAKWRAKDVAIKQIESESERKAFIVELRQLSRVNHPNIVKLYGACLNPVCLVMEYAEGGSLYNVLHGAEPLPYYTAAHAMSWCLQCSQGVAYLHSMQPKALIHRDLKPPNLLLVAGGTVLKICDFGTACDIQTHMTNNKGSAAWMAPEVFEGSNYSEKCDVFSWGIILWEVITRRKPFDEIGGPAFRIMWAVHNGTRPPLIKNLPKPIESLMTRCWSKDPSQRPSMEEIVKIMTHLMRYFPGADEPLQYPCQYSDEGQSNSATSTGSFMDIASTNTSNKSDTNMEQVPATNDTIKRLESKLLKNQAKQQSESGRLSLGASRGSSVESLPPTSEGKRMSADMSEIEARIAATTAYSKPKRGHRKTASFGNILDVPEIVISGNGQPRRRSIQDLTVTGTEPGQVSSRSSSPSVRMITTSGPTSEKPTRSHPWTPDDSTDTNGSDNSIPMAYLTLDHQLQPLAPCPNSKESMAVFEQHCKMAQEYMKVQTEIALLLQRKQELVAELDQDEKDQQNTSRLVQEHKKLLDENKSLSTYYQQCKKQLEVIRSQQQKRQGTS

Q: Which IC50 does the source give for `O=C1Nc2ccccc2/C1=N/N=C1\SCC(=O)N1c1ccc(O)cc1` here?
A: 11 µM
